# Square brackets hold non-standard residues; d marks the D form. Peptide text beside a SMILES is read from it. * marks the point of attachment. Dolaproine = CO[C@@H]([C@@H]1CCCN1)[C@@H](C)C(=O)O; Dil = CC[C@H](C)[C@H](NC)[C@@H](CC(=O)O)OC; X1 = C[C@@H](N*)[C@@H](O)c1ccccc1; NMeV = CN[C@H](C(=O)O)C(C)C
# Columns and labels:
# [1] = system: acute myeloid leukemia (AML) at relapse; conditions: administered alone; cited from earlier work
# [2] = system: human breast cancer xenograft BT-483; experiment: Efficacy in subcutaneous established human breast cancer xenograft BT-483 in SCID mice; type: in vivo; conditions: 5 mg/kg every four days for four doses, intravenous bolus; tumors about 100 mm^3 at start; compared to control ADC
# Method: In this experiment, human breast cancer BT-483 cells were used to generate stock xenografts, which were maintained by serial passages in SCID mice. Stock tumors were harvested sterilely and minced into 1 mm^3 pieces. Six (6) pieces were implanted into the flank of individual SCID mice. Tumors were allowed to grow untreated until they reached an approximate volume of 100 mm^3. The Ha22-2(2,4)6.1vcMMAE and the control ADC were dosed at 5 mg/kg every four (4) days for four (4) doses by intravenous bolus injection. The amount of ADC administered was based on the individual body weight of each animal obtained immediately prior to dosing. Tumor growth was monitored using caliper measurements every 3 to 4 days. Tumor volume was calculated as Width^2×Length/2, where width is the smallest dimension and length is the largest dimension.
# [3] = system: human lung cancer xenograft AG-L4; experiment: Efficacy in subcutaneous established human lung cancer xenograft AG-L4 in SCID mice; type: in vivo; conditions: 10 mg/kg every seven days for two doses, intravenous bolus; tumors about 200 mm^3 at start; compared to control ADC
# Method: In another experiment, patient-derived lung cancer xenograft AG-L4 was maintained by serial passages in SCID mice. Stock tumors were harvested sterilely and minced into 1 mm^3 pieces. Six (6) pieces were implanted into the flank of individual SCID mice. Tumors were allowed to grow untreated until they reached an approximate volume of 200 mm^3. The Ha22-2(2,4)6.1vcMMAE and the control ADC were dosed at 10 mg/kg every seven (7) days for two doses by intravenous bolus injection. The amount of ADC administered was based on the individual body weight of each animal obtained immediately prior to dosing. Tumor growth was monitored using caliper measurements every 3 to 4 days. Tumor volume was calculated as Width^2×Length/2, where width is the smallest dimension and length is the largest dimension.
# P-glycoprotein (P-gp) = P-glycoprotein (P-gp) (Homo sapiens, UniProt P08183); experiment: Transporter systems in vitro; type: in vitro ADME
# [4] = system: bacterial reverse mutation; experiment: Bacterial reverse mutation assay (Ames test); type: cell-based
# Text: (§1) MMAE was genotoxic in the rat bone marrow micronucleus study through an aneugenic mechanism. This effect is consistent with the pharmacological effect of MMAE as a microtubule-disrupting agent. MMAE was not mutagenic in the bacterial reverse mutation assay (Ames test) or the L5178Y mouse lymphoma forward mutation assay.
# CYP3A4 = target: T1, CYP3A4 (Homo sapiens, UniProt P08684); experiment: Metabolism in vitro; type: in vitro ADME
# T1 construct: from tissue; host or cells: human subjects in vivo (endogenous enzyme)
# Text: Enfortumab vedotin-ejfv catabolism has not been studied in humans; however, it is expected to undergo catabolism to small peptides, amino acids, unconjugated MMAE, and unconjugated MMAE-related catabolites.
# rat bone marrow = experiment: Rat bone marrow micronucleus study; type: in vivo; conditions: aneugenic mechanism
# Text: as §1
# [5] = Population pharmacokinetic analysis in patients; type: in vivo, human
# Text: Population pharmacokinetic analysis included data from 369 patients based on three Phase 1 studies and one Phase 2 study. Enfortumab vedotin-ejfv pharmacokinetics were characterized after single and multiple doses in patients with locally advanced or metastatic urothelial carcinoma and other solid tumors.
# Steady-state concentrations of ADC and MMAE were reached after 1 treatment cycle.
# L5178Y mouse lymphoma = L5178Y mouse lymphoma forward mutation assay; type: cell-based
# Text: as §1
# [6] = unconjugated MMAE, after first treatment cycle of 1.25 mg/kg, Days 1, 8 and 15
# Chain of P-glycoprotein (P-gp) (P08183 whole entry): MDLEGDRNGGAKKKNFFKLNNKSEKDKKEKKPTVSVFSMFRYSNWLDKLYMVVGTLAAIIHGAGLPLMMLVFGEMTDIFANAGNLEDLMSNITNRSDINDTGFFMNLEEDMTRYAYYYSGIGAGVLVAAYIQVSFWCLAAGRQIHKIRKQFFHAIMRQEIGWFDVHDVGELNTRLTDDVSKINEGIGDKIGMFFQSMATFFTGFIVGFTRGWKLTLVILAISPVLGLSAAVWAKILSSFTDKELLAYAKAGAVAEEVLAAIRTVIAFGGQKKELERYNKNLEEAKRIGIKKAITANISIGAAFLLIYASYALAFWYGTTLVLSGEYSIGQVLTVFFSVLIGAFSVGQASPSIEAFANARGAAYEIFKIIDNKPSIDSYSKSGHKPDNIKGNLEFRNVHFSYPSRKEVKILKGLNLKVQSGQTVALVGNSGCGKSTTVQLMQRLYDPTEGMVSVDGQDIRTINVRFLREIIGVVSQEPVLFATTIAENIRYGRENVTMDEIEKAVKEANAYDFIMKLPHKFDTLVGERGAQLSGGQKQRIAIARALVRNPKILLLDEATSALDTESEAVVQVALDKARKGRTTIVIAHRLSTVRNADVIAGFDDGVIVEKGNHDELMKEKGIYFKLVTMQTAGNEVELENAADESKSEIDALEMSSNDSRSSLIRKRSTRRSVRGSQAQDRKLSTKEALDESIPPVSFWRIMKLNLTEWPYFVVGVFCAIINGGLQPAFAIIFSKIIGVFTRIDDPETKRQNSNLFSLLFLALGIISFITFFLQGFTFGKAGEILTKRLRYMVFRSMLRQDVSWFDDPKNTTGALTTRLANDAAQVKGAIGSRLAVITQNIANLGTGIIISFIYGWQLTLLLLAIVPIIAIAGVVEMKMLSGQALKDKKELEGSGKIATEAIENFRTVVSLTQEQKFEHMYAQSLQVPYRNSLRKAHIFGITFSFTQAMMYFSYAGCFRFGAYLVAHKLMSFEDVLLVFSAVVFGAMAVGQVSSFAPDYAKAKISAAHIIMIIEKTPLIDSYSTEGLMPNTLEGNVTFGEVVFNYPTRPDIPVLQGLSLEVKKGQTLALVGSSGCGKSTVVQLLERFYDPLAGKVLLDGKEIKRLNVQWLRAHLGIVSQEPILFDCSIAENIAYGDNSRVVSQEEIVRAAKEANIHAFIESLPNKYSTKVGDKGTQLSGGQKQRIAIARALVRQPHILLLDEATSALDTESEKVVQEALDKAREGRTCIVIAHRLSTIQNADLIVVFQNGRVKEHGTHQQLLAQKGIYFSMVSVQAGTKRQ
# T1 sequence (P08684 whole entry): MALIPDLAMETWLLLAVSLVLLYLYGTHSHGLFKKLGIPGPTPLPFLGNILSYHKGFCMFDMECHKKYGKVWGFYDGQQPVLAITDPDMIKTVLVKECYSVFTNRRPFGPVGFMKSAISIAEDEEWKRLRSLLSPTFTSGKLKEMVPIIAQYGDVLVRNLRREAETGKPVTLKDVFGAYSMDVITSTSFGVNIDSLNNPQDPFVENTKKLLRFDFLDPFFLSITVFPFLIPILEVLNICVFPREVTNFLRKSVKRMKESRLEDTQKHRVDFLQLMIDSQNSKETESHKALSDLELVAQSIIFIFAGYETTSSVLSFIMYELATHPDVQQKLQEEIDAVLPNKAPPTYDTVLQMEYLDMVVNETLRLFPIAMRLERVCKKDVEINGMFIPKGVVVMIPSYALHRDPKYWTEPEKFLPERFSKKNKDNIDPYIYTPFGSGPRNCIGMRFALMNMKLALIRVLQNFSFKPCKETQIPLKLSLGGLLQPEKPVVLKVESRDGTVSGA
compound,measurement,setting,value
"CT-011: anti-PD-1 antibody, a humanized antibody",response in acute myeloid leukemia (AML) at relapse,[1],failed to show response
"Ha22-2(2,4)6.1-vcMMAE: 191P4D12 ADC: antibody Ha22-2(2,4)6.1 (murine hybridoma cell line-derived) conjugated to MMAE via vc linker",growth of BT-483 breast tumor xenografts,[2],significantly inhibited
same,growth of AG-L4 lung cancer xenografts,[3],significantly inhibited
"CC[C@H](C)[C@@H]([C@@H](CC(=O)N1CCC[C@H]1[C@H](OC)[C@@H](C)C(=O)N[C@H](C)[C@@H](O)c1ccccc1)OC)N(C)C(=O)[C@@H](NC(=O)[C@@H](NC)C(C)C)C(C)C [MMAE, monomethyl auristatin E] (H-[NMeV]V[Dil][Dolaproine]-X1)",P-gp inhibition,P-glycoprotein (P-gp),not an inhibitor
same,P-gp substrate,P-glycoprotein (P-gp),substrate
same,mutagenicity in Ames test,[4],not mutagenic
same,metabolism in vitro,CYP3A4,primarily metabolized by CYP3A4
same,genotoxicity in rat bone marrow micronucleus study,rat bone marrow,genotoxic
same,"exposure (AUC) in mild, moderate or severe renal impairment","[5]; 1.25 mg/kg, compared to normal renal function",No significant differences
same,AUC increase in mild hepatic impairment,"[5]; n=31, compared to normal hepatic function, population pharmacokinetics analysis",48%
same,accumulation following repeat administration,[5]; patients,Minimal accumulation
same,elimination of MMAE,[5]; patients,limited by its rate of release from enfortumab vedotin-ejfv
same,mean clearance (CL),[5]; patients,2.7 L/h
same,steady-state concentrations reached after,[5]; patients,1 treatment cycle
same,time of peak MMAE concentrations after enfortumab vedotin-ejfv dosing,[5]; patients,approximately 2 days
same,elimination half-life,"[5]; patients, multi-exponential declines",57.6 h
same,"AUC0-28 d, Mean (±SD)",[5]; [6],69 (42) ng · d/mL
same,"Cmax, Mean (±SD)",[5]; [6],4.8 (2.7) ng/mL
same,"Ctrough, 0-28 d (pre-dose concentration on day 28), Mean (±SD)",[5]; [6],0.57 (0.58) ng/mL
same,mutagenicity in L5178Y mouse lymphoma forward mutation assay,L5178Y mouse lymphoma,not mutagenic

# From US20230025600A1, “TREATMENT OF CANCERS WITH ANTIBODY DRUG CONJUGATES (ADC) THAT BIND TO 191P4D12 PROTEINS” (AGENSYS, INC., priority 2019, published 2023)
